# Measured values published in PubChem BioAssay AID2060889 (Molecular Pharmacology Branch, DTP, NCI, 2025).
# Tested on: LG0567-F671-PDC complex spheroids viability
# Experiment: Anticancer human tumor LG0567-F671-PDC patient-derived lung adenocarcinoma cell line growth inhibition [RAS]
# Conditions: for viability, T/C: stronger effect = lower value
# Summary of the method: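 Multi-cell-type spheroids: tumor cells plus HUVEC endothelial cells and mesenchymal stem cells. RAS-pathway inhibitors were combined with targeted agents, each dosed in half-log steps down from clinical Cmax, or from 10 microM when Cmax was unknown.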
# 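Note: spheroids exposed to compound for seven days before readout.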
# 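Throughout, for IC50: luminescence signal used as a proxy for viable cells.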
compound,measurement,setting,value
C[C@@H](NC(=O)c1ncnc(N)c1Cl)c1ncc(C(=O)Nc2cc(C(F)(F)F)c(Cl)cn2)s1 + CCn1c(-c2cc(N3CCN(C)CC3)cnc2C(C)OC)c2c3cc(ccc31)-c1csc(n1)CC(NC(=O)C1CC1C)C(=O)N1CCCC(N1)C(=O)OCC(C)(C)C2,IC50,"curve of first compound, second compound 0.000949 µM",< 0.0316 µM
same,IC50,"curve of first compound, second compound 0.003 µM",< 0.0316 µM
same,IC50,"curve of first compound, second compound 0.00949 µM",< 0.0316 µM
same,IC50,"curve of first compound, second compound 0.03 µM",< 0.0316 µM
same,IC50,"curve of first compound, second compound 0.0949 µM",< 0.0316 µM
same,IC50,"curve of first compound, second compound 0.3 µM",< 0.0316 µM
same,"viability, T/C","second compound 0.000949 µM, first compound 0.0316 µM",30.9%
same,"viability, T/C","second compound 0.000949 µM, first compound 0.1 µM",37.5%
same,"viability, T/C","second compound 0.000949 µM, first compound 0.316 µM",43.4%
same,"viability, T/C","second compound 0.000949 µM, first compound 1 µM",39.1%
same,"viability, T/C","second compound 0.000949 µM, first compound 3.16 µM",40.3%
same,"viability, T/C","second compound 0.000949 µM, first compound 10 µM",35.3%
same,"viability, T/C","second compound 0.003 µM, first compound 0.0316 µM",19.7%
same,"viability, T/C","second compound 0.003 µM, first compound 0.1 µM",18.3%
same,"viability, T/C","second compound 0.003 µM, first compound 0.316 µM",19.9%
same,"viability, T/C","second compound 0.003 µM, first compound 1 µM",22.7%
same,"viability, T/C","second compound 0.003 µM, first compound 3.16 µM",24.5%
same,"viability, T/C","second compound 0.003 µM, first compound 10 µM",26.4%
same,"viability, T/C","second compound 0.00949 µM, first compound 0.0316 µM",7.34%
same,"viability, T/C","second compound 0.00949 µM, first compound 0.1 µM",8.73%
same,"viability, T/C","second compound 0.00949 µM, first compound 0.316 µM",10.4%
same,"viability, T/C","second compound 0.00949 µM, first compound 1 µM",11.1%
same,"viability, T/C","second compound 0.00949 µM, first compound 3.16 µM",13.5%
same,"viability, T/C","second compound 0.00949 µM, first compound 10 µM",12.6%
same,"viability, T/C","second compound 0.03 µM, first compound 0.0316 µM",5.32%
same,"viability, T/C","second compound 0.03 µM, first compound 0.1 µM",5.26%
same,"viability, T/C","second compound 0.03 µM, first compound 0.316 µM",5.82%
same,"viability, T/C","second compound 0.03 µM, first compound 1 µM",8.15%
same,"viability, T/C","second compound 0.03 µM, first compound 3.16 µM",8.79%
same,"viability, T/C","second compound 0.03 µM, first compound 10 µM",9.05%
same,"viability, T/C","second compound 0.0949 µM, first compound 0.0316 µM",4.43%
same,"viability, T/C","second compound 0.0949 µM, first compound 0.1 µM",3.63%
same,"viability, T/C","second compound 0.0949 µM, first compound 0.316 µM",3.94%
same,"viability, T/C","second compound 0.0949 µM, first compound 1 µM",5.56%
same,"viability, T/C","second compound 0.0949 µM, first compound 3.16 µM",5.9%
same,"viability, T/C","second compound 0.0949 µM, first compound 10 µM",7.14%
same,"viability, T/C","second compound 0.3 µM, first compound 0.0316 µM",3.16%
same,"viability, T/C","second compound 0.3 µM, first compound 0.1 µM",4.04%
same,"viability, T/C","second compound 0.3 µM, first compound 0.316 µM",3.86%
same,"viability, T/C","second compound 0.3 µM, first compound 1 µM",4.35%
same,"viability, T/C","second compound 0.3 µM, first compound 3.16 µM",5.96%
same,"viability, T/C","second compound 0.3 µM, first compound 10 µM",5.33%
CC(=O)OC12COC1CC(O)C1(C)C(=O)C(O)C3=C(C)C(OC(=O)C(O)C(NC(=O)OC(C)(C)C)c4ccccc4)CC(O)(C(OC(=O)c4ccccc4)C21)C3(C)C (stereo unspecified),"viability, T/C",compound 0.0316 µM,51.5% [middle of 4 runs]
same,"viability, T/C",compound 0.1 µM,44.6% [middle of 4 runs]
same,"viability, T/C",compound 0.316 µM,58.4% [middle of 4 runs]
same,"viability, T/C",compound 1 µM,62.5% [middle of 4 runs]
same,"viability, T/C",compound 3.16 µM,70.3% [middle of 4 runs]
same,"viability, T/C",compound 10 µM,63.5% [middle of 4 runs]
same,IC50,curve of compound,< 0.0316 µM
CC(=O)OC12COC1CC(O)C1(C)C(=O)C(O)C3=C(C)C(OC(=O)C(O)C(NC(=O)OC(C)(C)C)c4ccccc4)CC(O)(C(OC(=O)c4ccccc4)C21)C3(C)C (stereo unspecified) + C#Cc1c(F)ccc2cc(O)cc(-c3ncc4c(N5CC6CCC(C5)N6)nc(OCC56CCCN5CC(F)C6)nc4c3F)c12,IC50,"curve of first compound, second compound 0.0316 µM",< 0.0316 µM
same,IC50,"curve of first compound, second compound 0.1 µM",< 0.0316 µM
same,IC50,"curve of first compound, second compound 0.316 µM",< 0.0316 µM
same,IC50,"curve of first compound, second compound 1 µM",< 0.0316 µM
same,IC50,"curve of first compound, second compound 3.16 µM",< 0.0316 µM
same,IC50,"curve of first compound, second compound 10 µM",< 0.0316 µM
same,"viability, T/C","second compound 0.0316 µM, first compound 0.0316 µM",44.2%
same,"viability, T/C","second compound 0.0316 µM, first compound 0.1 µM",43%
same,"viability, T/C","second compound 0.0316 µM, first compound 0.316 µM",53.7%
same,"viability, T/C","second compound 0.0316 µM, first compound 1 µM",60%
same,"viability, T/C","second compound 0.0316 µM, first compound 3.16 µM",66.5%
same,"viability, T/C","second compound 0.0316 µM, first compound 10 µM",65.3%
same,"viability, T/C","second compound 0.1 µM, first compound 0.0316 µM",45.7%
same,"viability, T/C","second compound 0.1 µM, first compound 0.1 µM",40.1%
same,"viability, T/C","second compound 0.1 µM, first compound 0.316 µM",53.2%
same,"viability, T/C","second compound 0.1 µM, first compound 1 µM",56.7%
same,"viability, T/C","second compound 0.1 µM, first compound 3.16 µM",64.5%
same,"viability, T/C","second compound 0.1 µM, first compound 10 µM",59.4%
same,"viability, T/C","second compound 0.316 µM, first compound 0.0316 µM",34.9%
same,"viability, T/C","second compound 0.316 µM, first compound 0.1 µM",37.8%
same,"viability, T/C","second compound 0.316 µM, first compound 0.316 µM",45.4%
same,"viability, T/C","second compound 0.316 µM, first compound 1 µM",49.1%
same,"viability, T/C","second compound 0.316 µM, first compound 3.16 µM",60%
same,"viability, T/C","second compound 0.316 µM, first compound 10 µM",43.8%
same,"viability, T/C","second compound 1 µM, first compound 0.0316 µM",26.7%
same,"viability, T/C","second compound 1 µM, first compound 0.1 µM",24.8%
same,"viability, T/C","second compound 1 µM, first compound 0.316 µM",31.1%
same,"viability, T/C","second compound 1 µM, first compound 1 µM",37%
same,"viability, T/C","second compound 1 µM, first compound 3.16 µM",43.8%
same,"viability, T/C","second compound 1 µM, first compound 10 µM",30.8%
same,"viability, T/C","second compound 3.16 µM, first compound 0.0316 µM",16.1%
same,"viability, T/C","second compound 3.16 µM, first compound 0.1 µM",16.4%
same,"viability, T/C","second compound 3.16 µM, first compound 0.316 µM",19.9%
same,"viability, T/C","second compound 3.16 µM, first compound 1 µM",20.5%
same,"viability, T/C","second compound 3.16 µM, first compound 3.16 µM",23.9%
same,"viability, T/C","second compound 3.16 µM, first compound 10 µM",15.2%
same,"viability, T/C","second compound 10 µM, first compound 0.0316 µM",9.08%
same,"viability, T/C","second compound 10 µM, first compound 0.1 µM",7.93%
same,"viability, T/C","second compound 10 µM, first compound 0.316 µM",9.23%
same,"viability, T/C","second compound 10 µM, first compound 1 µM",8.41%
same,"viability, T/C","second compound 10 µM, first compound 3.16 µM",9.25%
same,"viability, T/C","second compound 10 µM, first compound 10 µM",5.64%
